Reference: the supplement of paper PMC11451515

Experiments:
Conditions in all cases: 48 h
[1] = tested on: NOMO1; assay: cell viability relative to DMSO control; higher = less cytotoxic
In short: (§1)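 Viability was expressed as a per-plate percentage of DMSO wells, with cell-free wells as background. Leukemia cells (NOMO1 or SEM at 500 cells/well, P12-Ichikawa at 1000 cells/well) were adapted for at least four passages in each medium and seeded in 1536-well plates (5 μl). Library compounds in DMSO were pin-dosed over an 11-point threefold series from 47 μM to 0.79 nM, and CellTiter-Glo One luminescence was read after 48 h at 37°C.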

[2] = tested on: P12-Ichikawa; assay: as above
In short: as §1

[3] = tested on: SEM cells; assay: as above
In short: as §1

[4] = tested on: NOMO1; assay: AUC of viability dose-response curve (% viability x log10 dose units); higher = less sensitive
In short: (§2)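 Leukemia cells adapted to each medium were seeded at 500 or 1000 cells/well in 1536-well plates and dosed with library compounds in DMSO at 11 threefold doses from 47 μM to 0.79 nM for 48 h at 37°C. CellTiter-Glo One luminescence was normalised per plate to DMSO and cell-free wells, then fitted with a four-parameter log-logistic model over log10 doses. Area under the curve was taken from this fit by the trapezoidal rule, with curves above full viability scaled and curves failing quality control removed.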

[5] = tested on: P12-Ichikawa; assay: as above
In short: as §2

[6] = tested on: SEM cells; assay: as above
In short: as §2

CO[C@H]1C[C@@H]2CC[C@@H](C)[C@@](O)(O2)C(=O)C(=O)N2CCCC[C@H]2C(=O)O[C@H]([C@H](C)C[C@@H]2CC[C@@H](OP(C)(C)=O)[C@H](OC)C2)CC(=O)[C@H](C)/C=C(\C)[C@@H](O)[C@@H](OC)C(=O)[C@H](C)C[C@H](C)/C=C/C=C/C=C/1C
cell viability [%]
Conditions	[1]	[2]	[3]
HPLM + 10% dialyzed FBS, 0.000781 µM	110	–	91
HPLM + 10% dialyzed FBS, 0.00234 µM	114	–	97.7
HPLM + 10% dialyzed FBS, 0.00702 µM	109	–	99.9
HPLM + 10% dialyzed FBS, 0.0211 µM	116	–	98.8
HPLM + 10% dialyzed FBS, 0.0632 µM	106	–	81.7
HPLM + 10% dialyzed FBS, 0.19 µM	113	–	40.8
HPLM + 10% dialyzed FBS, 0.569 µM	102	–	80.2
HPLM + 10% dialyzed FBS, 1.71 µM	105	–	81.9
HPLM + 10% dialyzed FBS, 5.12 µM	96.7	–	75.4
HPLM + 10% dialyzed FBS, 15.4 µM	97	–	71.1
HPLM + 10% dialyzed FBS, 46.1 µM	94.5	–	64.1
RPMI 5 mM glucose + 10% FBS, 0.000781 µM	–	119	87.7
RPMI 5 mM glucose + 10% FBS, 0.00234 µM	–	138	96
RPMI 5 mM glucose + 10% FBS, 0.00702 µM	–	121	105
RPMI 5 mM glucose + 10% FBS, 0.0211 µM	–	126	76.7
RPMI 5 mM glucose + 10% FBS, 0.0632 µM	–	118	80.9
RPMI 5 mM glucose + 10% FBS, 0.19 µM	–	97.7	42.9
RPMI 5 mM glucose + 10% FBS, 0.569 µM	–	122	85.8
RPMI 5 mM glucose + 10% FBS, 1.71 µM	–	96.3	78.8
RPMI 5 mM glucose + 10% FBS, 5.12 µM	–	88.4	63.7
RPMI 5 mM glucose + 10% FBS, 15.4 µM	–	100	66.6
RPMI 5 mM glucose + 10% FBS, 46.1 µM	–	81.4	52.9
RPMI 5 mM glucose + 10% dialyzed FBS, 0.000781 µM	122	–	105
RPMI 5 mM glucose + 10% dialyzed FBS, 0.00234 µM	113	–	98.1
RPMI 5 mM glucose + 10% dialyzed FBS, 0.00702 µM	118	–	108
RPMI 5 mM glucose + 10% dialyzed FBS, 0.0211 µM	115	–	108
RPMI 5 mM glucose + 10% dialyzed FBS, 0.0632 µM	117	–	92.3
RPMI 5 mM glucose + 10% dialyzed FBS, 0.19 µM	121	–	40.3
RPMI 5 mM glucose + 10% dialyzed FBS, 0.569 µM	120	–	85.7
RPMI 5 mM glucose + 10% dialyzed FBS, 1.71 µM	125	–	86.9
RPMI 5 mM glucose + 10% dialyzed FBS, 5.12 µM	124	–	71.9
RPMI 5 mM glucose + 10% dialyzed FBS, 15.4 µM	103	–	68.2
RPMI 5 mM glucose + 10% dialyzed FBS, 46.1 µM	120	–	57.1

AUC of viability dose-response curve
Conditions	[4]	[5]	[6]
HPLM + 10% dialyzed FBS	452	453	382
RPMI 5 mM glucose + 10% FBS	462	411	360
RPMI 5 mM glucose + 10% dialyzed FBS	476	414	380

Cc1cc(Nc2ncc(Cl)c(Nc3ccccc3[S+](=O)([O-])C(C)C)n2)c(OC(C)C)cc1C1CCNCC1
cell viability [%]
Conditions	[1]	[2]	[3]
HPLM + 10% dialyzed FBS, 0.000781 µM	–	111	115
HPLM + 10% dialyzed FBS, 0.00234 µM	–	113	114
HPLM + 10% dialyzed FBS, 0.00702 µM	–	110	119
HPLM + 10% dialyzed FBS, 0.0211 µM	–	117	123
HPLM + 10% dialyzed FBS, 0.0632 µM	–	112	120
HPLM + 10% dialyzed FBS, 0.19 µM	–	115	109
HPLM + 10% dialyzed FBS, 0.569 µM	–	101	96
HPLM + 10% dialyzed FBS, 1.71 µM	–	105	88.1
HPLM + 10% dialyzed FBS, 5.12 µM	–	105	69
HPLM + 10% dialyzed FBS, 15.4 µM	–	90.6	48.3
HPLM + 10% dialyzed FBS, 46.1 µM	–	30.2	5.59
RPMI 5 mM glucose + 10% FBS, 0.000781 µM	126	111	112
RPMI 5 mM glucose + 10% FBS, 0.00234 µM	113	104	114
RPMI 5 mM glucose + 10% FBS, 0.00702 µM	112	113	103
RPMI 5 mM glucose + 10% FBS, 0.0211 µM	132	118	118
RPMI 5 mM glucose + 10% FBS, 0.0632 µM	126	125	119
RPMI 5 mM glucose + 10% FBS, 0.19 µM	127	112	101
RPMI 5 mM glucose + 10% FBS, 0.569 µM	115	108	94.2
RPMI 5 mM glucose + 10% FBS, 1.71 µM	97	96.1	101
RPMI 5 mM glucose + 10% FBS, 5.12 µM	76.8	94.1	65.3
RPMI 5 mM glucose + 10% FBS, 15.4 µM	54.1	69.9	50.5
RPMI 5 mM glucose + 10% FBS, 46.1 µM	6.06	5.5	5.71
RPMI 5 mM glucose + 10% dialyzed FBS, 0.000781 µM	127	117	125
RPMI 5 mM glucose + 10% dialyzed FBS, 0.00234 µM	120	117	121
RPMI 5 mM glucose + 10% dialyzed FBS, 0.00702 µM	112	118	104
RPMI 5 mM glucose + 10% dialyzed FBS, 0.0211 µM	117	116	146
RPMI 5 mM glucose + 10% dialyzed FBS, 0.0632 µM	122	115	142
RPMI 5 mM glucose + 10% dialyzed FBS, 0.19 µM	109	117	121
RPMI 5 mM glucose + 10% dialyzed FBS, 0.569 µM	105	111	110
RPMI 5 mM glucose + 10% dialyzed FBS, 1.71 µM	114	113	100
RPMI 5 mM glucose + 10% dialyzed FBS, 5.12 µM	67	107	80.9
RPMI 5 mM glucose + 10% dialyzed FBS, 15.4 µM	52	89.3	52.2
RPMI 5 mM glucose + 10% dialyzed FBS, 46.1 µM	4.03	10.5	6.92

AUC of viability dose-response curve
Conditions	[4]	[5]	[6]
HPLM + 10% dialyzed FBS	396	449	380
RPMI 5 mM glucose + 10% FBS	395	425	393
RPMI 5 mM glucose + 10% dialyzed FBS	395	442	392
